From PMC10697071, “Bio-guided isolation of alpha-glucosidase inhibitory compounds from Vietnamese liverwort Marchantia polymorpha: in vitro and in silico studies” (RSC Advances, 2023) come the findings set out here.

Test [1] concerns the target yeast alpha-glucosidase. The test is described as follows: Alpha-glucosidase inhibition assay. Type of test: biochemical. The following applies: for IC50: yeast alpha-glucosidase. From the text: Evaluation of the inhibitory activity of 1–12 against yeast alpha-glucosidase followed a previous procedure.[37]
Test [2] deals with alpha-glucosidase. The test is described as follows: Kinetic study of alpha-glucosidase inhibition (Lineweaver–Burk plots). Type of test: biochemical. The procedure: To examine the inhibition mechanism, activity at concentrations of 0, 3.61, 7.22, 14.44, and 28.88 μM of 2 was recorded. […] Increasing inhibitor concentrations cause a decrease in the Vmax of α-glucosidase.
The mechanisms of inhibition of alpha-glucosidase by 2 were determined by Lineweaver–Burk plots (Microsoft Excel 2010, Washington, USA), using methods similar to those reported in the literature.[40] Enzyme inhibition due to various concentrations of 2 was evaluated by monitoring the effects of different concentrations of the substrate. For Lineweaver–Burk double reciprocal plots 1/enzyme velocity (1/V) vs. 1/substrate concentration (1/[S]), the inhibition type was determined using various concentrations of pNPG (1 mM, 2 mM, and 4 mM) as a substrate in the presence of different concentrations of the test compound (0, 3.61, 7.22, 14.44, and 28.88 μM for 2). The experiments were carried out in three replicates. The mixtures were incubated at 37 °C, and the optical density was measured at 405 nm every 1 min for 30 min with the ELx800 Absorbance Microplate Reader (BioTek Instruments, Inc., Vermont, USA). The optimal concentrations of the tested compound were chosen based on the IC50 value. The inhibition constants were obtained graphically from secondary plots (Microsoft Excel 2010, Washington, USA).

Entries after “also recorded” stand apart in the source; their conditions may differ.

As to `Oc1cc2cc(c1O)Oc1ccc(cc1)CCc1cccc(O)c1Oc1cccc(c1)CC2` [Compound 1, Marchantin A], the IC50 in test [1] was 57.3 ± 1.9 µM. `Oc1cccc2c1Oc1cccc(c1)CCc1cc(c(O)c(O)c1Br)Oc1ccc(cc1)CC2` [Compound 1a, 5′-Bromomarchantin A]: the “Alpha-glucosidase inhibition (in words)” value in test [1] (qualitative statement) is listed as “weaker activity than the parent compound 1”. The molecule also had an IC50 in test [1] of 151 ± 2.9 µM.

In test [1], `Oc1ccc2cc1Oc1ccc(cc1)CCc1ccc(c(O)c1)-c1c(O)cccc1CC2` [Compound 2, Isoriccardin C] gave an IC50 of 28.9 ± 0.2 µM. Also, in test [2] (Lineweaver–Burk plots, same Km, decreasing Vmax), the Type of inhibition result is recorded as “non-competitive inhibitor; also recorded: non-competitive type”. Also, the Ki in test [2] (pNPG substrate 1, 2, 4 mM, 37 °C, secondary plot of slope versus concentration, read-out: Ki (inhibition constant)) was determined as 67.1 ± 1.28 µM. `Oc1ccc2c(c1)CCc1ccc(cc1)Oc1cc(ccc1O)CCc1ccc-2c(O)c1` [Compound 3, Riccardin C]: the IC50 in test [1] is 42.2 ± 1.4 µM.

Consider `COC1Cc2cccc(c2)Oc2c(ccc(O)c2O)CCc2ccc(cc2)Oc2cc1cc(O)c2O` (stereo not drawn) [Compound 4, Marchantin K], for which, in test [1], half-maximal inhibition (IC50) was put at 131 ± 3 µM. `Oc1ccc(CCc2cccc(O)c2)cc1` [Compound 5, Lunularin] came in with an IC50 in test [1] of 130 ± 2 µM. Molecule `COc1cc(OC)c2c(c1)[C@@H](Cc1ccc(OC)c(OC)c1)OC2=O` [Compound 6, 3R-(3,4-Dimethoxybenzyl)-5,7-dimethoxyphthalide] came in with an IC50 in test [1] greater than 200 µM.

In test [1], `COc1cc(OC)c2c(c1)[C@H](Cc1cc(OC)c(OC)c(OC)c1)OC2=O` [Compound 7, Marchatoside] gave an IC50 greater than 200 µM. On to `CC1(C)CC[C@]2(C)CC[C@]3(C)C(=CCC4[C@@]5(C)CCC(=O)C(C)(C)C5CC[C@]43C)C2C1` (stereo partly drawn) [Compound 10, 12-Oleanene-3-one], for which the IC50 in test [1] came to 75.1 ± 1.8 µM. Same read-out and setting: with `C[C@@H]1CC[C@]2(C(=O)O)CC[C@]3(C)C(=CC(=O)C4[C@@]5(C)CCC(=O)C(C)(C)C5CC[C@]43C)C2[C@H]1C` (stereo partly drawn) [Compound 11, 3,11-Dioxoursolic acid] the figure was 101 ± 3 µM; with `C[C@H]1[C@H](C)CC[C@]2(C(=O)O)CC[C@]3(C)C(=CC[C@@H]4[C@@]5(C)CC[C@H](O)C(C)(C)[C@@H]5CC[C@]43C)[C@H]12` [Compound 12, Ursolic acid], 86 ± 6.9 µM; with Vitexilactone [Compound 9], greater than 200 µM.

As usually defined, the IC50 is the point on the concentration scale where inhibition reaches its midpoint. As usually defined, the Ki is a dissociation constant, usually derived from enzyme kinetics or from competition with a known ligand.
